Columns and labels:
F70Cf [1] = biological target: T1, F70Cf (Klebsiella pneumoniae, UniProt C7C422, F70C); assay: Time-course fluorescence measurements of F70Cf on a spectrofluorometer; format: binding; conditions: for Fluorescence signal of F70Cf with inhibitor: F70Cf 0.13 μM, inhibitor 0, 2, 20 and 200 μM, excitation 494 nm, emission 518 nm, L-arginine 200 μM (1:1500) as control, FIGS. 7A-7E; for Initial phase of fluorescence increase (speed of binding to F70Cf): spectrophotometer, FIGS. 7A-7D; for Fluorescence signal of F70Cf with β-lactam antibiotic as a function of time: spectrofluorometer, mole ratios 1:150 and 1:1500, FIGS. 5A-5B
T1 construct: made in house; host or cells: E. coli BL21 (DE3), pET-3k vector; labelled with F5M after purification
T1 sequence (C7C422 29-270 F70C): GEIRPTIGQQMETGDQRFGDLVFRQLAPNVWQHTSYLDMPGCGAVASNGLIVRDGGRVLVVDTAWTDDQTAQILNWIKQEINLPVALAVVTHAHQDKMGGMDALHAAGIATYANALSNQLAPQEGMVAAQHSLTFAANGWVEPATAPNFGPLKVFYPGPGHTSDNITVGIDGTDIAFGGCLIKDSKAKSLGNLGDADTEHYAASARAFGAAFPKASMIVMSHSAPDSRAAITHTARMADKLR
Text: To investigate fluorescence response of the proposed NDM-1 mutant to two existing β-lactam antibiotics, fluorescein-labelled NDM-1 mutant, F70Cf, was mixed with cefotaxime and cephalothin in two concentrations (in mole ratios of 1:150 and 1:1500) and compared the fluorescence intensity level of these two samples with a blank (i.e., no cefotaxime nor cephalothin, or mole ratio=1:0) under a spectrofluorometer. […] It has been shown in other previous studies (Chan et al., 2008; Tsang et al., 2011) that binding of β-lactam antibiotics to the enzyme's active site induces the […] to depart from the active site, so that the fluorescein label (F5M) becomes well exposed to external aqueous environment and/or stays away from amino acid quenchers in the active site. When the […] is hydrolyzed to the acid product, the fluorescein label (F5M) returns to the active site, thus restoring its weak fluorescence signal.
Time-course fluorescence measurements were recorded at 518 nm by exciting the F70Cf (final concentration: 0.13 μM) at 494 nm with different concentrations of the inhibitors (0, 2, 20 and 200 μM, respectively) in labelling buffer (50 μM ZnCl2, 20 mM Tris-HCl buffer, pH 7.0) in a quartz cuvette. Triplicate measurements were performed for each inhibitor. L-arginine in 200 μM was also used as a control.

F70Cf [2] = biological target: T1, F70Cf; assay: Native ESI-MS binding study of F70Cf with inhibitors; conditions: 20 mM ammonium acetate with 50 μM ZnCl2, FIGS. 9A-9F
Procedure: To further verify that F70Cf can bind to these non-β-lactam inhibitors non-covalently, native ESI-MS measurements were performed. […] Prior to ESI-MS analysis, protein was buffer-exchanged into 20 mM ammonium acetate with 50 μM ZnCl2 buffer with ultra-filtration devices. Equal volumes of F70Cf and inhibitors were mixed in a molar ratio of 1:20 for 10 minutes, and the mixture was directly loaded into metal-coated glass capillaries, which were subsequently mounted onto the nano-ESI source for MS analysis […].

F70Cf [3] = biological target: T1, F70Cf; assay: Fluorescence microplate reader measurements of F70Cf; format: binding; conditions: for Initial increase in fluorescence signal, microplate reader: mole ratio 1:1500, FIGS. 8A-8D; for Fluorescence signal of F70Cf as a function of time, microplate reader: mole ratio of F70Cf to test substance 1:1500, FIGS. 6A-6B, 8E
Procedure: To investigate compatibility of F70Cf with a high-throughput screening platform, a F70Cf was initially added to a fluorescence microplate reader followed by injection of 1:1500 cefotaxime and cephalothin, respectively.
For high-throughput inhibitor screening experiments, the fluorescence signal changes were recorded by adding 10 μL of each inhibitor (final concentration: 200 μM) automatically into 250 μL of F70Cf (final concentration: 0.13 μM) in a 96-well plate containing 50 μM ZnCl2, 20 mM, pH7.0, Tris-HCl buffer, using Thermo Scientific Varioskan LUX Multimode Microplate Reader (Thermo Fisher Scientific) (n=3). The excitation and emission wavelengths were 494 and 520 nm, respectively. The injection of each inhibitor started at 0.5 min.

NDM-1 = NDM-1 (Klebsiella pneumoniae, UniProt C7C422); conditions: previous studies (Brem et al., 2016; Klingler et al., 2015; Ma et al., 2019); cited from earlier work
F70C (NDM-1 mutant) = biological target: T2, F70C (NDM-1 mutant) (Klebsiella pneumoniae, UniProt C7C422, F70C); assay: Specific activity against antibiotics by ultraviolet-visible spectroscopy (antibiotic hydrolysis); format: biochemical; conditions: enzyme 0.001 mg/ml, 100 μM antibiotic, 50 μM ZnCl2, 20 mM Tris-HCl buffer, pH 7.0
T2 construct: made in house; host or cells: E. coli BL21 (DE3), pET-3k vector
T2 sequence (C7C422 29-270 F70C): as above
Procedure: (§1) Specific activity (U/mg) of wild-type NDM-1, F70C and F70Cf against different antibiotics were measured by ultraviolet-visible spectroscopy. Enzymes (final concentration: 0.001 mg/ml) were incubated with 100 μM of different antibiotics: cefotaxime, ceftazidime, penicillin G, ampicillin and meropenem, in 500 μL buffer (50 μM ZnCl2, 20 mM Tris-HCl buffer, pH 7.0). Antibiotic hydrolysis was monitored at 264 nm (cefotaxime), 260 nm (ceftazidime), 240 nm (penicillin G), 235 nm (ampicillin) and 297 nm (meropenem). The molar extinction coefficients were used as follows: cefotaxime=−7250 M^−1 cm^−1, ceftazidime=−8660 M^−1 cm^−1, penicillin G=−560 M^−1 cm^−1, ampicillin=900 M^−1 cm^−1 and meropenem −10940 M^−1 cm^−1.

Wild-type NDM-1 = biological target: T3, Wild-type NDM-1 (Klebsiella pneumoniae, UniProt C7C422); assay: as above; format: biochemical; conditions: enzyme 0.001 mg/ml, 100 μM antibiotic, 50 μM ZnCl2, 20 mM Tris-HCl buffer, pH 7.0
T3 construct: made in house; host or cells: E. coli BL21 (DE3), pET-3k vector
T3 sequence (C7C422 29-270 limits assumed): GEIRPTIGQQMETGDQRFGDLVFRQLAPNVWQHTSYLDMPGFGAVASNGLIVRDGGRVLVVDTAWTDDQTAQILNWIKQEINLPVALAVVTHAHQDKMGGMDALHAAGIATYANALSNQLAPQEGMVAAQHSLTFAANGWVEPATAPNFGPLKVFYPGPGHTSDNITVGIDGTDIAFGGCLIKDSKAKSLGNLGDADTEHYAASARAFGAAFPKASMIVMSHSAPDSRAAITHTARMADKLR
Procedure: as §1

[4] = biological target: T4, F70Cf (fluorescein-labelled NDM-1 mutant) (Klebsiella pneumoniae, UniProt C7C422, F70C); assay: as above; format: biochemical; conditions: enzyme 0.001 mg/ml, 100 μM antibiotic, 50 μM ZnCl2, 20 mM Tris-HCl buffer, pH 7.0
T4 construct: made in house; host or cells: E. coli BL21 (DE3), pET-3k vector; labelled with F5M after purification
T4 sequence (C7C422 29-270 F70C): as the sequence (C7C422 29-270 F70C) above
Procedure: as §1

| Molecule | Fluorescence signal of F70Cf with inhibitor (F70Cf [1]) | Initial phase of fluorescence increase (speed of binding to F70Cf) (F70Cf [1]) | Formation of non-covalent complex with F70Cf (F70Cf [2]) | Initial increase in fluorescence signal, microplate reader (F70Cf [3]) | IC50 (NDM-1) [µM] | Specific activity, F70C (F70C (NDM-1 mutant)) [U/mg] | Specific activity, Wild-type NDM-1 (Wild-type NDM-1) [U/mg] | Specific activity, F70Cf [4] [U/mg] | Fluorescence signal of F70Cf with β-lactam antibiotic as a function of time (F70Cf [1]) | Fluorescence signal of F70Cf as a function of time, microplate reader (F70Cf [3]) |
| --- | --- | --- | --- | --- | --- | --- | --- | --- | --- | --- |
| O=C(O)CNC(=O)C(CS)Cc1ccccc1 (racemic) [DL-thiorphan] | increased with an increasing dose of the inhibitors | bind much faster to F70Cf as compared L-captopril | can form non-covalent complexes with F70Cf in a significant population | much faster than that of L-captopril | 1.8 |  |  |  |  |  |
| CC1(C)S[C@@H]2[C@H](NC(=O)[C@H](N)c3ccccc3)C(=O)N2[C@H]1C(=O)O [Ampicillin, ampicillin] |  |  |  |  |  | 13880 ± 1406 | 16349 ± 880 | 779 ± 114 |  |  |
| CO/N=C(\C(=O)N[C@@H]1C(=O)N2C(C(=O)O)=C(COC(C)=O)CS[C@H]12)c1csc(N)n1 [Cefotaxime, cefotaxime] |  |  |  |  |  | 8195 ± 1960 | 8166 ± 937 | 1529 ± 121 | fluorescence signals increased and then decreased gradually as a function of time | stronger fluorescence signals and then declining fluorescence signals as a function of time |
| CC(C)(O/N=C(\C(=O)N[C@@H]1C(=O)N2C(C(=O)[O-])=C(C[n+]3ccccc3)CS[C@H]12)c1csc(N)n1)C(=O)O [Ceftazidime, ceftazidime] |  |  |  |  |  | 3835 ± 216 | 3446 ± 150 | 308 ± 33 |  |  |
| N=C(N)NCCC[C@H](N)C(=O)O [L-arginine] | no fluorescence signal |  | virtually cannot form a F70Cf-L-arginine complex in a significant population |  |  |  |  |  |  | no fluorescence signals |
| C[C@@H](O)[C@H]1C(=O)N2C(C(=O)O)=C(S[C@@H]3CN[C@H](C(=O)N(C)C)C3)[C@H](C)[C@H]12 [Meropenem, meropenem] |  |  |  |  |  | 5863 ± 291 | 6834 ± 1582 | 506 ± 30 |  |  |
| CC1(C)S[C@@H]2[C@H](NC(=O)Cc3ccccc3)C(=O)N2[C@H]1C(=O)O [Penicillin G, penicillin G] |  |  |  |  |  | 60854 ± 1436 | 54764 ± 3013 | 10720 ± 330 |  |  |
| CC(=O)OCC1=C(C(=O)O)N2C(=O)[C@@H](NC(=O)Cc3cccs3)[C@H]2SC1 [cephalothin] |  |  |  |  |  |  |  |  | fluorescence signals increased and then decreased gradually as a function of time | stronger fluorescence signals and then declining fluorescence signals as a function of time |
| peptide with an amino acid sequence of GSKKPVPIIYCNRRTGKCQRM (SEQ ID NO: 9), from GL Biochem [thanatin] | increased with an increasing dose of the inhibitors | bind much faster to F70Cf as compared L-captopril | can form non-covalent complexes with F70Cf in a significant population | much faster than that of L-captopril | 3.21 |  |  |  |  |  |
